Results reported in paper PMC10666288, “Unveiling the Catalytic Mechanism of a Processive Metalloaminopeptidase” (Biochemistry, 2023).
Like-named read-outs stand apart in the source and are kept apart here.

Legend:
Assay type in all cases: biochemical
Set-up in all cases: GG stays after cleavage) (N); made in house; host or cells: E. coli BL21(DE3)
PaPepA [1] = target: T1, PaPepA (Pseudomonas aeruginosa, UniProt Q02RY8); details: aa-pNA varied, 3 mM MnCl2, 100 nM PaPepA, pH 8.0, 25 °C
Protocol: (§1) A BMG Labtech POLARstar Omega plate reader was used for activity assays and kinetic studies involving amino acids conjugated to para-nitroaniline (pNA) (Sigma) or peptides as substrates. Assays were carried out at 25 °C in clear half-area 96-well plates (Greiner Bio-One). […] For kinetic assays investigating Leu-AMC as a substrate, a SpectraMax M2E was used. Reactions were carried out using black half-area 96-well plates with clear bottoms (Greiner Bio-One). Product formation was assessed by monitoring changes in fluorescence, with the excitation wavelength set at 341 nm and emission at 441 nm. The cutoff was 420 nm. PMT gain was set to medium, with six flashes per read. […] Calibration curves of pNA concentration vs absorbance and AMC vs fluorescence were constructed, and initial rate values were divided by the slope of these calibration curves to reveal the rate of product formation over time (Table S2).
(§2) For all assays excluding pH dependence curves, buffer conditions were as follows: 100 mM HEPES, 50 mM KCl, and pH 8.0. For assays carried out under pseudo-first-order conditions, one reaction component was fixed and in excess, while the other was varied. […] For assays involving variation of aa-pNA or aa-AMC, MnCl2 was added to a final concentration of 3 mM.

PaPepA [2] = target: T1, PaPepA; assay: Metal activation of Leu-pNA cleavage (metal varied, Leu-pNA fixed); details: with 2 mM Leu-pNA, pH 8.0
Protocol: as §1, §2

PaPepA [3] = target: T1, PaPepA; assay: Pre-steady-state stopped-flow kinetics with global fit; details: global fit
Protocol: An Applied Photophysics SX20 stopped-flow spectrofluorimeter was used to perform kinetic measurements under pre-steady-state conditions. The instrument was equipped with a xenon lamp, a 5 μL mixing cell, and a circulating water bath to maintain constant temperature. All reactions were carried out in 100 mM HEPES (pH 8.0) and 50 mM KCl at 25 °C. Enzyme and metal ions were kept in one syringe, while the other substrate (Leu-pNA or Leu-AMC) was kept in the second syringe. The reaction was triggered by rapid mixing of 55 μL from each syringe. Three traces with 10,000 points per trace were collected per experiment.
For absorbance measurements, product formation was monitored by reading the pNA absorbance at 405 nm (5 mm path length). Multiple turnover rates were measured in the presence of saturating concentrations of both metal and Leu-pNA. PaPepA was present at 1 or 10 μM, MnCl2 was present at 3 mM, and Leu-pNA was present at 250 μM. For fluorescence measurements, a path length of 1 mm was used. Reactions were followed by monitoring the appearance of a 7-amino-4-methylcoumarin (AMC) fluorophore following PaPepA-catalyzed breakdown of Leu-AMC. An excitation wavelength of 341 nm was used with a 400 nm cutoff filter for the emission. Slits were 1 nm for excitation and 2 nm for emission.
Experiments under single turnover conditions monitored fluorescence change with a detector voltage of 300 V, 0.1 μM Leu-AMC, 1.5 mM MnCl2, and varying PaPepA (0.5, 1, 2, 4, 8, 16, or 32 μM). Experiments under multiple turnover conditions monitored fluorescence change with a detector voltage of 250 V, 50 μM Leu-AMC, 1.2 μM PaPepA and varying concentrations of MnCl2 (0.2, 0.4, 0.6, 1.2, 2.4, 6, 9, 12, 18, 24, 60, 120, 1200, or 3600 μM).
Calibration curves of known concentrations of AMC were performed at detector voltages of 250 and 300 V. STO and MTO curves were divided by the slope of these calibration curves to convert the change in fluorescence observed to the concentration of AMC produced.
Pre-steady-state data were imported into KinTek Global Explorer and fit to linear or single-exponential equations using the aFit function to obtain standard deviation estimates. A kinetic model with five steps was considered, and rate constants and outputs were fitted according to this model. Initial estimates for rate constants were based on kcat and KM values. The FitSpace Editor was employed to determine confidence intervals for each of the rate constants. More details including model fitted and parameters used are available in the Supporting Information.
Supporting information note 4: Kintek Global Explorer fitting of stopped flow data Both MTO and STO pre-steady-state data were fit according to the mode described in Figure 4A with scaling factors for each fluorescent species (EP and P) to account for differences in AMC fluorescence whilst in complex with PaPepA versus free in solution. Scaling factors were different across STO and MTO experiments as both were carried out using different detector voltages.
The model that best fitted acquired data was as below, where F is metal free enzyme, E1 is PaPepA with one Mn2+ ion, E is PepA with two Mn2+ ions, S is Leu- […]
For fitting, k1 and k-1 ratios were constrained (linked) based KD for Mn2+ binding as measured by ITC (12nM). Initially, k2 and k-2 were allowed to vary without constraints, and values best fitted as well as Fitspace lower and upper boundaries are reported in Table 2. The value for k1 was best fitted as diffusion limited, and therefore was fixed in further fitting cycles. The best fitted value for k-2 was high and unconstrained, and therefore also fixed at 1000 s-1 for further fitting cycles. k3, k-3, k4, and k5 were not constrained. Multiple iterations of fitting were performed, and best fit values recorded. k1, k2, k3, k-3, k4, and k5 were evaluated using FitSpace Explorer to generate confidence intervals for each of these rate constants. […]

PaPepA [4] = target: T1, PaPepA; details: labelled component varied
Description: Viscosity effects were studied by using sucrose as a viscogen. Relative viscosities for different concentrations of sucrose were taken from Bazelyansky et al.[27] Concentrations of viscogen were as follows: 14% sucrose, ηrel = 1.5; 24% sucrose, ηrel = 2.2; and 32% sucrose, ηrel = 2.9.
Viscosity effects were fit to the following equation, where kinetic parameter0 and kinetic parameterη are kcat or kcat/KM in the […] of viscogen, respectively, ηrel is the relative viscosity of the solution, and m is the slope. [drawing 4] 4
All measurements were performed in triplicate.

PaPepA [5] = target: T1, PaPepA; details: 5 % PEG 8000, labelled component varied, other saturating; in 1/s
PaPepA [6] = target: T1, PaPepA; assay: Alcohol dehydrogenase peptide degradation assay (LC-MS); details: MassPREP ADH digest, 100 nM PaPepA, 3 mM MnCl2, overnight
Protocol: A vial of MassPREP ADH digestion standard (Waters) was reconstituted in 200 μL of LC-MS grade water. Reaction mixtures were prepared by combining 25 μL of ADH solution, 3 mM MnCl2, and 100 nM PaPepA (final concentrations) in a total volume of 50 μL buffer (100 mM HEPES pH 8.0, 50 mM KCl). For control reactions, the addition of PaPepA was omitted. Samples and controls were each prepared in triplicate and incubated overnight, and reactions quenched with the addition of […] of 10% TCA. Following the addition of acid, PaPepA was added to control samples to a final concentration of 50 nM (equivalent to a concentration of enzyme in the reaction samples following acid quenching). Samples were concentrated to 20 μL. A 1 μL portion of this was diluted in 100 μL of LC-MS grade water. 10 μL was injected and analyzed on a SCIEX TripleTOF 5600+ mass spectrometer with an Eksigent 425 nanoLC configured in trap elute configuration. Each sample was loaded onto the trap (Waters ACQUITY M-Class symmetry column 180 μm × 20 mm) and washed with 0.05% TFA in water for 5 min at 5 μL/min. The trap was then switched in line with the Waters M-Class HSS1 analytical column, 75 μm × 150 mm, with a flow rate of 300 nL/min. Samples were eluted over 30 min using a linear gradient from 98% A (100% water 0.1% FA) 2% B (80% MeCN, […] 0.1% FA) to 60% A, 40% B linearly over 12 min, rising to 5% A, 95% B, before returning to 98% A to re-equilibrate. Eluate from the column was sprayed directly into the nanospray source of the mass spectrometer. MS data were collected from 400 to 1250 m/z as the survey scan, and under data-dependent acquisition (DDA) setting, the top 20 strongest peptides were selected for MS/MS using CID fragmentation. Peptide mass tolerance was 20 ppm on the MS and 0.1 Da on the MS/MS.
Identification and analysis of ADH peptides were performed using the Skyline open-access software package (version 22.2). Raw data were extracted using msConvert (ProteoWizard) and the data searched using Skyline against the ADH1 sequence from Saccharomyces cerevisiae (UniProt: P00330). The digestion enzyme was set as trypsin, allowing up to three missed cleavages. Searches encompassed peptides between 400 and 1250 m/z with a mass tolerance of 0.3 m/z. Carbamidomethyl was set as a fixed modification for cysteine residues. Data were searched for the protonated 1+, 2+, and 3+ charge states of each peptide.
Peaks were integrated, and areas were used to qualitatively assess differences in peptide abundances across PaPepA-digested samples and controls. Peptides present in control samples but absent in reactions (integrated area <1000) were classified as “digested”.

T1 sequence (Q02RY8 whole entry): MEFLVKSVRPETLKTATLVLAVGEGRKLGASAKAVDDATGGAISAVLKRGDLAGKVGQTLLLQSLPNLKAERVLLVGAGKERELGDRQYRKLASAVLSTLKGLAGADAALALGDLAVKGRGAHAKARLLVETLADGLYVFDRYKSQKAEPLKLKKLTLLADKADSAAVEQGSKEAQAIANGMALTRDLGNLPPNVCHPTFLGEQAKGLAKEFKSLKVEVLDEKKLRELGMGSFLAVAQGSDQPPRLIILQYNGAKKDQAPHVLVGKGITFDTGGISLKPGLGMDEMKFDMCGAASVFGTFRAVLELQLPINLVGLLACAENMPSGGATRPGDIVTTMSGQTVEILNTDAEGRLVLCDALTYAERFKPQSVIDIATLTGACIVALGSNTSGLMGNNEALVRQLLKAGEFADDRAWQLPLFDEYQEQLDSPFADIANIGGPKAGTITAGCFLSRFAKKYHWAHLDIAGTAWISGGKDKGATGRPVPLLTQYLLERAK

C[C@H](N)C(=O)Nc1ccc([N+](=O)[O-])cc1 [Ala-pNA]
Km (PaPepA [1]): 220 ± 30 µM | kcat (PaPepA [1]): 0.037 ± 0.001 s^–1

[Co+2] [Co^2+]
KACT (PaPepA [2]): 0.17 ± 0.01 mM | kcat (PaPepA [2]): 0.137 ± 0.002 s^–1 | kcat/KACT (PaPepA [2]): 0.80 ± 0.06 s^–1mM^–1

[Fe+2] [Fe^2+]
KACT (PaPepA [2]): >10 mM | kcat (PaPepA [2]): 0.012 ± 0.003 s^–1

CCC(C)[C@H](N)C(=O)Nc1ccc([N+](=O)[O-])cc1 (some centres unmarked) [Ile-pNA]
Km (PaPepA [1]): 100 ± 30 µM | kcat (PaPepA [1]): 0.004 ± 0.000 s^–1

Cc1cc(=O)oc2cc(NC(=O)[C@H](N)CC(C)C)ccc12 [Leu-AMC]
k3, best-fitted value (PaPepA [3]; E + S = ES, S is Leu-AMC): 2.3 ± 0.1 μM^–1 s^–1 | k-3, best-fitted value (PaPepA [3]; E + S = ES, reverse, S is Leu-AMC): 47.9 ± 0.6 s^–1 | k5, best-fitted value (PaPepA [3]; EP = E + P): 13.4 ± 0.1 s^–1 | k4, best-fitted value (PaPepA [3]; ES = EP): 6.3 ± 0.1 s^–1

CC(C)C[C@H](N)C(=O)Nc1ccc([N+](=O)[O-])cc1 [Leu-pNA, reference compound]
kcat (PaPepA [4]; H2O (0% PEG-8000), other saturating, in 1/s): 0.335 ± 0.004 | Slope (sucrose) on kcat (PaPepA [4]; sucrose as viscogen): 0.03 ± 0.01 | kcat (PaPepA [5]): 0.391 ± 0.008 | Km (PaPepA [1]): 160 ± 10 µM | kcat (PaPepA [1]): 0.254 ± 0.005 s^–1

NCCCC[C@H](N)C(=O)Nc1ccc([N+](=O)[O-])cc1 [Lys-pNA]
Km (PaPepA [1]): 280 ± 40 µM | kcat (PaPepA [1]): 0.039 ± 0.002 s^–1

CSCC[C@H](N)C(=O)Nc1ccc([N+](=O)[O-])cc1 [Met-pNA]
Km (PaPepA [1]): 150 ± 20 µM | kcat (PaPepA [1]): 0.084 ± 0.003 s^–1

[Ni+2] [Ni^2+]
KACT (PaPepA [2]): 2.5 ± 0.4 mM | kcat (PaPepA [2]): 0.077 ± 0.003 s^–1 | kcat/KACT (PaPepA [2]): 0.032 ± 0.005 s^–1mM^–1

N[C@@H](Cc1ccccc1)C(=O)Nc1ccc([N+](=O)[O-])cc1 [Phe-pNA]
Km (PaPepA [1]): 260 ± 50 µM | kcat (PaPepA [1]): 0.115 ± 0.008 s^–1

O=C(Nc1ccc([N+](=O)[O-])cc1)[C@@H]1CCCN1 [Pro-pNA]
kcat (PaPepA [1]): 0.081 ± 0.003 s^–1 | Km (PaPepA [1]; read-out: KM): 1200 ± 80 µM

CC(C)[C@H](N)C(=O)Nc1ccc([N+](=O)[O-])cc1 [Val-pNA]
Km (PaPepA [1]): 50 ± 40 µM | kcat (PaPepA [1]): 0.002 ± 0.001 s^–1

EKDIVGAVLK [tryptic peptide of yeast ADH (MassPREP digestion standard)]
Cleaved? (PaPepA [6]): Not digested

GVIFYESHGK [tryptic peptide of yeast ADH (MassPREP digestion standard)]
Cleaved? (PaPepA [6]): Digested (Peptides present in control samples but absent in reactions (integrated area <1000) were classified as “digested”)

VLGIDGGEGK [tryptic peptide of yeast ADH (MassPREP digestion standard)]
Cleaved? (PaPepA [6]): Digested (Peptides present in control samples but absent in reactions (integrated area <1000) were classified as “digested”)

YSGVC[+57.0]HTDLHAWHGDWPLPVK: tryptic peptide of yeast ADH, carbamidomethyl cysteine
Cleaved? (PaPepA [6]): Digested (Peptides present in control samples but absent in reactions (integrated area <1000) were classified as “digested”)
